# Test: in vitro
# Settings: human, hela cells, % viability
row,Structure (SMILES),"viability at 28.5 h, 10 µM [%]"
1,O=[N+]([O-])c1ccccc1S(=O)(=O)NCCSCc1c(F)cccc1Cl [CBK265259],102
2,Cc1ccccc1NC(=O)NCc1ccccc1 [CBK105833],86.8
3,O=C(OCc1cc2ccccc2cn1)N1CCOCC1 [CBK200121],102
4,O=C(Cn1cc(C(=O)Nc2ccc(F)cc2)ccc1=O)Nc1nc2c(s1)CCCCC2 [CBK286080],99.3
5,COc1cc2c(cc1OC)CN(CC(O)COc1cccc3c1CCCC3)CC2 (stereo not shown) [CBK003828],113
6,CCOc1ccsc1C(=O)N1CCN(CC)CC1 [CBK200250],125
7,CCn1c(=N)n(CC(=O)O)c2ccccc21 [CBK262906B],94
8,Cc1cc(Cn2nnnc2-c2ccncc2)cc(C)c1O [CBK291103],104
9,COc1cccc(C2C(C(=O)c3ccc(C)o3)=C(O)C(=O)N2CCN2CCOCC2)c1 (stereo not shown) [CBK264899],92.8
10,Cc1nc(-c2nnc3ccc(Cl)nn23)c(Br)[nH]1 [CBK028706B],87.5
11,Nc1ccc(Oc2nc(Oc3ccc(N)cc3)c(F)c(Oc3ccc(N)cc3)c2F)cc1 [CBK266397C],110
12,CC(=O)c1ccc(-c2cnc3[nH]c(=O)n([C@H](C)c4ccccc4)c3n2)s1 [CBK064375],98.2
13,Cc1cc2c(cc3c(=O)n(CC(=O)NC4CCC4)nc(C)n32)s1 [CBK284118],107
14,CCCC(=O)Nc1ccc(C(=O)N2CCN(C)CC2)cc1 [CBK304337],100
15,CCOC(=O)c1cnc2c(C)cc(C)cc2c1NCCN1CCOCC1 [CBK264757],109
16,O=[N+]([O-])c1ccc(-c2ccc(/N=C/c3ccco3)cc2)cc1 [CBK261639],92.2
17,COCc1cccc(-c2nccnc2OCc2ccccn2)c1 [CBK106953],96
18,CC1CC(C)CN(CCCNC(=O)c2cc(C(C)C)nn2C)C1 (stereo not shown) [CBK282665],106
19,Cc1ccc(C)c(N2CCN(S(=O)(=O)c3ccc(-c4ccccc4)cc3)CC2)c1 [CBK100692],104
20,Cc1cc2c(s1)c1cnn(CC(=O)N3CCCC3)c(=O)c1n2C [CBK284153],85.6
21,Cc1cc(=O)n2c(C(=O)Nc3ccc(C(=O)O)cc3)c(C(=O)Nc3cccc(C)c3C)sc2n1 [CBK297547],89.5
22,O=C(O)c1cc(NC(=O)C2CCCCC2)cc(C(=O)O)c1 [CBK286972],103
23,Nc1ncc(-c2ccc(C(=O)N3CCOCC3)cc2)cc1C(=O)NCc1ccc(S(N)(=O)=O)cc1 [CBK158597],105

row,Structure (SMILES),"viability at 28.5 h, 10 µM [%]"
1,CCOC(=O)CCCCSc1c(CC)c(C)nc2ccccc12 [CBK153458T],96
2,CC(=O)NCCN(Cc1ccc(S(=O)(=O)N2CCOC2=O)cc1)Cc1ccoc1 [CBK024460],110
3,Cc1cc(-n2c(C)cc(C(=O)CSc3n[nH]c(=O)n3CC3CCCO3)c2C)no1 (stereo not shown) [CBK295589],112
4,O=C(O)C(O)C(O)C(O)CO (stereo not shown) [CBK278306G],89.3
5,COc1ccc(F)cc1S(=O)(=O)N1CCCN(S(=O)(=O)c2cc(F)ccc2OC)CC1 [CBK266555],93.5
6,CCC(C)NC(=O)Cn1cccc2cc(C3CCNCC3)nc1-2 (stereo not shown) [CBK284681],110
7,O=C(O)/C=C/C(=O)Nc1ccccc1C(=O)O [CBK261461],101
8,Cn1ccc(C2CCCCCN2C(=O)c2c(Cl)cnn2C)n1 (stereo not shown) [CBK284914],102
9,Cc1cc(C(=O)N2CCC(Cn3cncn3)(C3CCCCC3)CC2)n[nH]1 [CBK136786],99.2
10,CN(C(=O)CSc1nnn(C)n1)c1ccccc1 [CBK058129],117
11,CCNc1nnc(-c2c(Cl)c(C)nn2C)s1 [CBK288014],92.5
12,C[S+]([O-])CCNC(=O)c1cc2c(Cl)cccc2[nH]1 (stereo not shown) [CBK283304],83.9
13,Cc1c(C(=O)N(C)CCc2ccncc2)[nH]c2ccccc12 [CBK283271],104
14,COc1cc(C(=O)Nc2nnc(C3=COCCO3)o2)cc(OC)c1OC [CBK287410],97.6
15,O=C(CCn1cncn1)N[C@H]1C2CCCCC2[C@@H]1c1ccccc1 (stereo partly shown) [CBK282970],100
16,CC1=CC(c2ccc(Cl)cc2)n2nc(NC(=O)CCC(=O)O)nc2N1 (stereo not shown) [CBK264331],100
17,c1ccc(CCNc2cncc(-c3cccs3)n2)nc1 [CBK065510],98.2
18,Cc1nnc(SCC(=O)NC2CC3CCC2C3)[nH]1 (stereo not shown) [CBK270239],88.1
19,COC(=O)c1ccc2c(=O)n(CC3CCCO3)c(SCCO)nc2c1 (stereo not shown) [CBK306041],109
20,CCOC(=O)c1cnn(C2CCCN(c3ccc(C#N)nc3)C2)c1 (stereo not shown) [CBK306458],113
21,c1ccc2c(c1)OCc1nnc(CCN3CCCCC3)n1-2 [CBK005285],95.2
22,COc1ccc(NC(=O)Nc2ccc3nc(C)c(C)nc3c2)cc1 [CBK265120],97.4
23,CC1CCCC(C)N1S(=O)(=O)c1ccc(NS(=O)(=O)c2cccc(C(=O)O)c2)cc1 (stereo not shown) [CBK296944],94.6

row,Structure (SMILES),"viability at 28.5 h, 10 µM [%]"
1,Cc1cc(C)c(OCCNC(C)(C)C)c(Cl)c1 [CBK262713C],93.2
2,CC(=O)Nc1cccc(-c2cnc(N)c(NCc3cccnc3)n2)c1 [CBK063562],103
3,COc1ccc2ccccc2c1CNc1ccc(N2CCOCC2)c(C(=O)O)c1 [CBK269376],94.1
4,Cc1ccc2cc(S(=O)(=O)NCCCC(=O)O)ccc2c1 [CBK299818],95.8
5,COc1ccccc1-c1nnc(NCc2ccc3c(c2)OCO3)nc1-c1ccccc1OC [CBK286284],96.4
6,Cc1ccc(OCC(=O)Nc2cccc(C(=O)O)c2)cc1 [CBK287023],110
7,CCCN1CCC2CN(CCCC(=O)c3ccc(F)cc3)CCN2C1=O (stereo not shown) [CBK024882C],101
8,CC(=O)NCC1CC(c2ccc(C3=CCN(C(C)=O)CC3)cc2)=NO1 (stereo not shown) [CBK010245],86.8
9,OCC1CCCN1c1cncc(-c2cccnc2)n1 (stereo not shown) [CBK065439],100
10,O=C(CC1CCCCC1)Nc1snnc1-c1ccc(Cl)cc1 [CBK153245],114
11,Sc1nncn1NCc1cc(Cl)ccc1OCc1ccccc1 [CBK265752],88.9
12,CN1CCN(c2cccc(-c3ccccc3Oc3ccccc3)n2)CC1 [CBK037598],101
13,Nc1ncnc(NCCc2ccccc2)n1 [CBK262701],85
14,O=C1CC[C@@H](NCc2ccoc2)[C@H](c2cc(F)cc(F)c2)N1 [CBK282912],96
15,O=C1Nc2ccc(-c3ccsc3)cc2C(=O)N2CC[C@H](NC(=O)N3CCOCC3)[C@@H]12 [CBK289338],109
16,O=[N+]([O-])c1cccc(S(=O)(=O)NCCSc2ccccc2)c1 [CBK267862],94.1
17,O=C1CC(C(=O)Nc2ccc3c(c2)OCO3)n2c(nc3ccccc32)N1 (stereo not shown) [CBK270177],93.6
18,CCn1nc(C)c(-c2cncn2CCCN2CCCCC2)c1C [CBK281769],97.6
19,O=C(CSc1ccc2nnc(-c3ccc(F)cc3)n2n1)N1CCOCC1 [CBK287521],96.9
20,Cc1cc(NC(=O)C2CCN(C(=O)CCSc3ccccc3)CC2)no1 [CBK304329],99
21,CC1CCc2c(sc3nc(SCC(=O)NC(c4ccccc4)c4ccccc4)nc(N)c23)C1 (stereo not shown) [CBK267274],91.1
22,c1ccc(C(CC2CCCCC2)NCc2cccnc2)cc1 (stereo not shown) [CBK073816],96.3
23,COc1ccccc1-c1ccc(Nc2ccccc2)nc1 [CBK036909],85.4

row,Structure (SMILES),"viability at 28.5 h, 10 µM [%]"
1,O=C(CC(C(=O)O)N1CCOCC1)Nc1ccc(Cl)cc1 (stereo not shown) [CBK267086],105
2,O=S(=O)(Nc1nnn[nH]1)c1ccc(F)cc1 [CBK050473],104
3,COC(=O)c1sc(N2CCOCC2)c(C#N)c1N [CBK006430],101
4,CCn1cc(C(=O)NN)c(=O)c2cc(F)c(N3CCCC3)cc21 [CBK307146],82.9
5,COc1cccc(CC(=O)N2C3CCC2CC(O)(c2ccco2)C3)c1 (stereo not shown) [CBK284053],80.5
6,O=C(CSc1ccc2nnc(-c3ccccc3)n2n1)NCc1ccco1 [CBK287514],95.6
7,Cc1nc2ccc(C(=O)N(C)Cc3ccco3)cn2c1N(C)C=O [CBK145482],99
8,O=C(O)CC1C(=O)NCCN1Cc1cccc(C(F)(F)F)c1 (stereo not shown) [CBK269958],91.1
9,Fc1cccc(-c2nc3cnccn3c2NC2CCCC2)c1 [CBK283780],81.4
10,Cc1c(NC(=S)NC(=O)COc2ccc(Cl)cc2)cccc1C(=O)O [CBK265070],103
11,Oc1cc(-c2ccccc2)nc(NNc2ccccc2)n1 [CBK261716],96.6
12,NS(=O)(=O)c1ccc(NC(S)=Nc2ccc(S(=O)(=O)N3CCCC3)cc2)cc1 [CBK266918],80.3
13,COc1cc(/C=N\Nc2nnc3c(n2)[nH]c2c(C)cccc23)cc(Br)c1O [CBK262375],106
14,CC(=O)NC(CC(=O)N1CCCC(n2cccn2)C1)c1cccs1 (stereo not shown) [CBK305405],94.6
15,Fc1ccc(-c2ccc(N3CCN(c4ccncc4)CC3)nc2)cc1Cl [CBK036821],111
16,O=S(=O)(NCCSc1ccccn1)c1ccc(Br)cc1 [CBK264001],99.3
17,COc1ccc(Cc2nc(CCNC(C)=O)n(CC(F)(F)F)n2)cc1 [CBK307287],77.8
18,FC(F)(F)c1ccc(CN2CCN(c3nccnc3OCCN3CCOCC3)CC2)cc1 [CBK082890T],90.8
19,COC(=O)N/N=C(\C)c1ccc(Br)s1 [CBK027886],103
20,CCOC(=O)Nc1ccc2c(c1)N(C(=O)CCN1CCOCC1)c1ccccc1CC2 [CBK261291C],103
21,Cc1cnc(C(=O)N2CCC3(CC2)CC(=O)c2cc(Cl)cc(Cl)c2O3)cn1 [CBK156502],89.7

# Same assay, conditions: human, hela cells, % viability, bulk resorufin, single well
row,Structure (SMILES),"viability at 28.5 h, 10 µM [%]"
1,O=C1NC(=O)C(=Cc2cccc(OC(F)(F)C(F)F)c2)C(=O)N1 [CBK265150],108

# From paper PMC12040169 (PLOS Biology, 2025)
